In PubChem BioAssay (NCI):
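Cultured in 96-well plates, cells were exposed to test compound for 48 hours across five concentrations. TGI: total growth inhibition.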

Columns and labels:
Assay in all cases: DTP human tumour cell line panel, 48 h
[1] = tested on: SK-OV-3 ovarian
[2] = tested on: U251 CNS
[3] = tested on: A549 NSCLC
[4] = tested on: KM20L2 colon
[5] = tested on: ACHN renal
[6] = tested on: M19-MEL melanoma
[7] = tested on: LXFL 529 NSCLC
[8] = tested on: NCI-H226 lung
[9] = tested on: TK-10 renal
[10] = tested on: SR leukemia
[11] = tested on: OVCAR-4 ovarian
[12] = tested on: UACC-257 melanoma
[13] = tested on: BT-549 breast
[14] = tested on: NCI-H460 lung
[15] = tested on: SF-295 CNS
[16] = tested on: HCT-15 colon
[17] = tested on: OVCAR-5 ovarian
[18] = tested on: EKVX NSCLC
[19] = tested on: M14 melanoma
[20] = tested on: A498 renal
[21] = tested on: DU-145 prostate
[22] = tested on: HOP-92 NSCLC
[23] = tested on: SW-620 colon
[24] = tested on: DLD-1 colon
[25] = tested on: SF-268 CNS
[26] = tested on: CCRF-CEM leukemia
[27] = tested on: COLO 205 colon
[28] = tested on: SNB-19 CNS
[29] = tested on: SNB-78 CNS
[30] = tested on: T-47D breast
[31] = tested on: RPMI-8226 leukemia
[32] = tested on: SK-MEL-5 melanoma
[33] = tested on: NCI/ADR-RES ovarian
[34] = tested on: DMS 114 small cell lung
[35] = tested on: UACC-62 melanoma
[36] = tested on: XF 498 CNS
[37] = tested on: MCF7 breast
[38] = tested on: MDA-MB-231 breast
[39] = tested on: PC-3 prostate
[40] = tested on: MDA-MB-435
[41] = tested on: RXF 393 renal
[42] = tested on: SN12C renal
[43] = tested on: UO-31 renal
[44] = tested on: DMS 273 small cell lung
[45] = tested on: NCI-H23 lung
[46] = tested on: SNB-75 CNS
[47] = tested on: HOP-18 NSCLC
[48] = tested on: MALME-3M melanoma
[49] = tested on: SF-539 CNS
[50] = tested on: MDA-N
[51] = tested on: LOX IMVI melanoma
[52] = tested on: IGROV1 ovarian
[53] = tested on: OVCAR-8 ovarian
[54] = tested on: SK-MEL-28 melanoma
[55] = tested on: KM12 colon
[56] = tested on: HS 578T breast
[57] = tested on: HCC-2998 colon
[58] = tested on: OVCAR-3 ovarian
[59] = tested on: 786-0 renal
[60] = tested on: HT29 colon
[61] = tested on: HCT-116 colon
[62] = tested on: NCI-H522 lung
[63] = tested on: K-562 leukemia
[64] = tested on: HOP-62 NSCLC
[65] = tested on: CAKI-1 renal
[66] = tested on: HL-60(TB) leukemia
[67] = tested on: MOLT-4 leukemia
[68] = tested on: SK-MEL-2 melanoma
[69] = tested on: RXF-631 renal

CC(C)(CN1CCCCC1)C(=O)/C=C/c1ccc(/C=C/C(=O)C(C)(C)CN2CCCCC2)cc1
TGI [1]: 2.91 µM | TGI [2]: 1.18 µM | TGI [3]: 2.97 µM | TGI [4]: 1.65 µM | TGI [5]: 0.669 µM | TGI [6]: 2.35 µM | TGI [7]: 0.682 µM | TGI [8]: 3.77 µM | TGI [9]: 2.31 µM | TGI [10]: 0.646 µM | TGI [11]: 1.47 µM | TGI [12]: 2.13 µM | TGI [13]: 3.35 µM | TGI [14]: 1.96 µM | TGI [15]: 1.68 µM | TGI [16]: 0.703 µM | TGI [17]: 1.57 µM | TGI [18]: 4.21 µM | TGI [19]: 3.26 µM | TGI [20]: 3.08 µM | TGI [21]: 5.05 µM | TGI [22]: 1.58 µM | TGI [23]: 0.463 µM | TGI [24]: 0.323 µM | TGI [25]: 1.71 µM | TGI [26]: 0.234 µM | TGI [27]: 0.418 µM | TGI [28]: 3.15 µM | TGI [29]: 7.17 µM | TGI [30]: 1.65 µM | TGI [31]: 0.663 µM | TGI [32]: 1.98 µM | TGI [33]: 2.36 µM | TGI [34]: 1.95 µM | TGI [35]: 2.35 µM | TGI [36]: 1.28 µM | TGI [37]: 1.77 µM | TGI [38]: 0.476 µM | TGI [39]: 0.82 µM | TGI [40]: 0.984 µM | TGI [41]: 0.745 µM | TGI [42]: 0.589 µM | TGI [43]: 2.54 µM | TGI [44]: 1.23 µM | TGI [45]: 2.04 µM | TGI [46]: 1.82 µM | TGI [47]: 2.57 µM | TGI [48]: 2.24 µM | TGI [49]: 1.55 µM | TGI [50]: 0.401 µM | TGI [51]: 0.856 µM | TGI [52]: 1.52 µM | TGI [53]: 3.57 µM | TGI [54]: 2.65 µM | TGI [55]: 1.35 µM | TGI [56]: 3.2 µM | TGI [57]: 1.07 µM | TGI [58]: 1.17 µM | TGI [59]: 2.79 µM | TGI [60]: 0.514 µM | TGI [61]: 1.1 µM | TGI [62]: 0.167 µM | TGI [63]: 0.375 µM | TGI [64]: 2.19 µM | TGI [65]: 0.904 µM | TGI [66]: 0.714 µM | TGI [67]: 0.33 µM | TGI [68]: 4.62 µM

O=C1CSC(/C=C/c2ccccc2)N1c1nc2cc3sc(N4C(=O)CSC4/C=C/c4ccccc4)nc3cc2s1 (configuration not stated)
TGI [1]: > 100 µM | TGI [2]: > 100 µM | TGI [3]: > 100 µM | TGI [5]: > 100 µM | TGI [8]: > 95.5 µM | TGI [9]: > 100 µM | TGI [10]: > 83.7 µM | TGI [11]: > 100 µM | TGI [12]: > 100 µM | TGI [13]: > 100 µM | TGI [14]: > 100 µM | TGI [15]: > 100 µM | TGI [16]: > 100 µM | TGI [17]: > 100 µM | TGI [18]: > 80.9 µM | TGI [19]: > 100 µM | TGI [20]: > 100 µM | TGI [21]: > 100 µM | TGI [22]: > 100 µM | TGI [23]: > 100 µM | TGI [25]: > 100 µM | TGI [26]: > 63.5 µM | TGI [27]: > 29.8 µM | TGI [28]: > 100 µM | TGI [30]: > 100 µM | TGI [31]: > 100 µM | TGI [32]: > 100 µM | TGI [33]: > 100 µM | TGI [35]: > 100 µM | TGI [37]: > 100 µM | TGI [38]: > 100 µM | TGI [39]: > 100 µM | TGI [40]: > 100 µM | TGI [41]: > 100 µM | TGI [42]: > 100 µM | TGI [43]: > 100 µM | TGI [45]: > 100 µM | TGI [46]: > 100 µM | TGI [48]: > 100 µM | TGI [49]: 9.61 µM | TGI [50]: > 100 µM | TGI [51]: > 100 µM | TGI [52]: > 100 µM | TGI [53]: > 100 µM | TGI [54]: > 100 µM | TGI [55]: > 100 µM | TGI [56]: > 100 µM | TGI [57]: > 100 µM | TGI [58]: > 100 µM | TGI [59]: > 100 µM | TGI [60]: > 67 µM | TGI [61]: > 100 µM | TGI [62]: > 100 µM | TGI [63]: > 100 µM | TGI [64]: > 100 µM | TGI [65]: > 100 µM | TGI [66]: > 100 µM | TGI [67]: > 100 µM | TGI [68]: > 100 µM

COC(=O)C(Cc1cc(OC)c(OC)c(OC)c1)C(=O)OC
TGI [1]: > 320 µM | TGI [2]: > 320 µM | TGI [3]: > 320 µM | TGI [4]: > 320 µM | TGI [5]: > 320 µM | TGI [6]: > 320 µM | TGI [7]: > 320 µM | TGI [9]: > 320 µM | TGI [10]: > 320 µM | TGI [12]: > 320 µM | TGI [14]: > 320 µM | TGI [15]: > 320 µM | TGI [16]: > 320 µM | TGI [17]: > 320 µM | TGI [18]: > 320 µM | TGI [69]: > 320 µM | TGI [22]: > 320 µM | TGI [23]: > 320 µM | TGI [24]: > 320 µM | TGI [25]: > 320 µM | TGI [26]: > 320 µM | TGI [27]: > 320 µM | TGI [31]: > 320 µM | TGI [32]: > 320 µM | TGI [34]: > 320 µM | TGI [35]: > 320 µM | TGI [36]: > 320 µM | TGI [41]: > 320 µM | TGI [42]: > 320 µM | TGI [44]: > 320 µM | TGI [45]: > 320 µM | TGI [48]: > 320 µM | TGI [51]: > 320 µM | TGI [52]: > 320 µM | TGI [53]: > 320 µM | TGI [54]: > 320 µM | TGI [55]: > 320 µM | TGI [57]: > 320 µM | TGI [58]: > 320 µM | TGI [59]: > 320 µM | TGI [60]: > 320 µM | TGI [62]: > 320 µM | TGI [63]: > 320 µM | TGI [64]: > 320 µM | TGI [65]: > 320 µM | TGI [66]: > 320 µM | TGI [67]: > 320 µM | TGI [68]: > 320 µM

Cn1cc(C(=O)c2ccccc2)c2ccccc2c1=O
TGI [1]: > 100 µM | TGI [3]: > 100 µM | TGI [5]: > 100 µM | TGI [6]: > 100 µM | TGI [7]: > 100 µM | TGI [9]: > 100 µM | TGI [10]: > 100 µM | TGI [11]: > 100 µM | TGI [12]: > 100 µM | TGI [14]: > 100 µM | TGI [15]: > 100 µM | TGI [16]: > 100 µM | TGI [18]: > 100 µM | TGI [19]: > 100 µM | TGI [22]: > 100 µM | TGI [23]: > 100 µM | TGI [24]: > 100 µM | TGI [25]: > 100 µM | TGI [26]: > 100 µM | TGI [27]: > 100 µM | TGI [31]: > 100 µM | TGI [32]: > 100 µM | TGI [34]: > 100 µM | TGI [35]: > 100 µM | TGI [36]: > 100 µM | TGI [41]: > 100 µM | TGI [42]: > 100 µM | TGI [44]: > 100 µM | TGI [46]: > 100 µM | TGI [48]: > 100 µM | TGI [49]: > 100 µM | TGI [51]: > 100 µM | TGI [52]: > 100 µM | TGI [53]: > 100 µM | TGI [54]: > 100 µM | TGI [55]: > 100 µM | TGI [57]: > 100 µM | TGI [58]: > 100 µM | TGI [59]: > 100 µM | TGI [60]: > 100 µM | TGI [61]: > 100 µM | TGI [62]: > 100 µM | TGI [64]: 71.8 µM | TGI [65]: > 100 µM | TGI [66]: > 100 µM | TGI [67]: > 100 µM | TGI [68]: > 100 µM
